Assay results reported in patent US10266527B2, “T-box riboswitch-binding anti-bacterial compounds” (THE RESEARCH FOUNDATION FOR THE STATE UNIVERSITY OF NEW YORK, priority 2013, dated 2019).
≈ marks a conversion by molar mass, not a printed value.

Tests used:
Type in all cases: cell-based
[1] = system: S. aureus; experiment: Disc diffusion assay (DDA) of PKZ6 and PKZ18 analogs with S. aureus; conditions: Table 4, 150 μg/ml, ✓ = zone of inhibition observed
Excerpt: (§1) The identity and purity of both PKZ 6 and 18 was confirmed by mass spectroscopy. Forty commercially available compounds chosen on the basis of initial in silico selections and similarity to our two hits were screened by disc diffusion assay (DDA) to determine their relative antibacterial activity with S. aureus. […] These 14 compounds were further evaluated by minimum inhibitory concentration assays (MIC)^41,42, and minimum bactericidal assays (MBC)^41 to confirm antibacterial activity, determine the concentration at which S. aureus growth is inhibited in liquid culture (MIC) and if they are acting as bacteriostatic or bactericidal agents (MBC). […] Representative embodiments are shown below.
All compounds were tested at a concentration of 150 μg/ml.

[2] = system: E. coli ATCC 25922; experiment: MBC determination; conditions: Table 5 analogs; triplicate experiments; N/O = not observed at concentrations tested (512-0.25 μg/mL)
Protocol: (§2) Following 24 h incubation of these subcultures at 37° C., MBC values were recorded as the lowest compound concentration at which no viable colonies were observed.

[3] = system: S. aureus ATCC 29213; experiment: Broth microdilution MIC; conditions: Staphylococcus aureus, ATCC29213; Table 5 analogs; triplicate experiments; N/O = not observed at concentrations tested (512-0.25 μg/mL); read-out: S. aureus MIC
Excerpt: as §1
Broth microdilution assays^77, 78 were performed with B. subtilis, and S. aureus to determine the lowest compound concentration inhibiting visible growth, i.e., minimum inhibitory concentration (MIC) of the 4 original compounds. […] The insolubility of the fourth compound may account for its lack of antibacterial activity. […] The MICs of each compound are moderate.
Strains were grown on trypticase soy agar (TSA) with 5% sheep blood at 37° C. for 24 hours. Five isolated colonies were used to inoculate 5 mL cation-adjusted Mueller-Hinton broth (CAMHB) contained in a 50 mL centrifuge tube. The resulting culture was incubated shaking at 200 rpm for 3 hours at 37° C. and then diluted in CAMHB until its turbidity matched that of a 0.5 McFarland standard (OD625 0.08-0.10). After the culture had been standardized against a 0.5 McFarland standard, it was diluted 1:10 in CAMHB and then 5 μL of this dilution was added to the appropriate wells of a 96-well, flat-bottomed tissue culture plate in which each row contained a twofold dilution series of a particular compound ranging in concentration from 0.25 μg/mL to 512 μg/mL. Each plate also included a sterility control well containing CAMHB to which standardized inoculum was not added and a growth control well containing CAMHB to which 5 μL standardized inoculum was added. […] With the exception of the sterility control well, all wells were inoculated within 15 minutes of inoculum preparation to ensure that the starting concentration of bacteria in each well was approximately 5×10^5 CFU/m L. A Tecan Sunrise microplate absorbance reader was used to measure the OD620 of each well before and after 20 h incubation at 37° C. MIC values were recorded as the lowest compound concentration at which no visible growth was observed after this incubation period.

[4] = system: E. coli ATCC 25922; experiment: Broth microdilution MIC (Gram negative specificity control); conditions: Escherichia coli, ATCC25922; Table 5 analogs; triplicate experiments; N/O = not observed at concentrations tested (512-0.25 μg/mL); read-out: E. coli MIC
[5] = system: S. aureus ATCC 29213; experiment: MBC determination; conditions: Table 5 analogs; triplicate experiments; N/O = not observed at concentrations tested (512-0.25 μg/mL)
Excerpt: as §1, §2

MIC [3] | MIC [4] | SMILES | ZOI observed [1] | E. coli (MBC) [2] | S. aureus (MBC) [5]
 |  | CC1CC(NC(=O)C2C3CCC(C3)C2C(=O)O)CC(C)(C)C1 (centres unmarked) [Compound 0605] | ✓ |  | 
512 µg/mL (≈ 1620 µM) | 256 µg/mL (≈ 809 µM) | O=C(NCCN1CCNCC1)c1c(O)c2ccccc2[nH]c1=O [Compound 0607] | ✓ | N/O | N/O
 |  | O=C(NCCNCCO)c1c(O)c2cccc3c2n(c1=O)CCC3 [Compound 0609] | ✓ |  | 
 |  | CCCn1c(=O)c(C(=O)NCCN2CCNCC2)c(O)c2ccccc21 [Compound 0610] | ✓ |  | 
